Patent US20250263396A1, “CRYSTALLINE FORMS OF 3-(5-(2-HYDROXY-2- METHYLPROPOXY)-6-METHYPYRAZIN-2-YL)-1H-INDOLE-7-CARBONITRILE” (NIDO BIOSCIENCES, INC., priority 2024, published 2025)
≈ marks a conversion by molar mass, not a printed value. Like-named read-outs stand apart in the source and are kept apart here.

Tests used:
[1] = Dry grinding simulation experiments; type: physicochemical; details: ground manually with mortar and pestle
Protocol: About 10 mg of Form P was ground manually with a mortar and a pestle for 1, 3 and 5 minutes.
About 10 mg of Form C was ground manually with a mortar and a pestle for 5 minutes.

[2] = Wet granulation simulation experiments; type: physicochemical
Protocol: Water or ethanol was added drop wise to about 10 mg of Form P until the sample is wetted sufficiently. Wet sample was ground gently with in a mortar and a pestle. Post granulation sample was dried under ambient condition for 10 min.
Water or ethanol was added drop wise to about 10 mg of Form C until the sample is wetted sufficiently. Wet sample was ground gently with in a mortar and a pestle. Post granulation sample was dried under ambient condition for 5 min.

[3] = Equilibration with solvents; type: physicochemical
Protocol: Obtained suspensions were filtered through a 0.45 μm nylon membrane filter by centrifugation at 14,000 rpm. Solid parts (wet cakes) were investigated by XRPD. For samples with different XRPD patterns, additional analysis including DSC, TGA, ^1H-NMR were performed.
(§1) Obtained suspensions were filtered through a 0.45 μm nylon membrane filter by centrifugation at 14,000 rpm.
as §1

[4] = Form change on heating, dehydration or desolvation (TGA, DSC, variable temperature XRPD); type: physicochemical; details: heated above 176° C. using milled Form P, variable temperature XRPD
Protocol: Relative stability of the anhydrates Form R and Form P was investigated by variable temperature XRPD and competitive equilibration experiments.
Relative stability of the anhydrates Form B, Form X, Form Y and Form C was investigated by variable temperature XRPD. Form B converted to Form X, Form Y and Form C after heating to 150° C., 176° C. and 180° C., respectively.

[5] = 24 hours; for XRPD: residual solids; for pH: supernatant
Protocol: (§2) Non-milled Form P (10 mg, purity 100%) was weighed into a 20 mL glass vial. 5 mL of solubility medium was added. Obtained suspensions were stirred at 37° C. at 400 rpm and sampled at 24 hours. The samples were centrifuged at 37 C at 14,000 rpm for 5 min. Supernatants were analyzed by HPLC and pH meter for solubility and pH value, respectively. Residual solids (wet cakes) from the 24 hours samples were also characterized by XRPD to determine physical form.

[6] = Solid state
Protocol: Bulk stability of Form P was evaluated at 25° C./92% RH in an open container, at 40° C./75% RH in an open container and at 60° C. in a tight container over 1 week, 2 weeks and 4 weeks. […] Samples after the stress were characterized by XRPD and HPLC and inspected for color change. Form P was also stressed under visible light for 1.2 million lux-hrs. at 25° C. Samples after the stress were characterized by XRPD and HPLC and inspected for color change.

[7] = wet cake in sealed bottle
Protocol: Wet cake chemical stability of Form P at 40° C., 50° C., 60° C. was evaluated.

[8] = cake dried under vacuum
From the text: The cake of Form P was dried under vacuum at different temperatures to evaluate the chemical stability of dry cake.

[9] = physchem; details: 37 °C, thermodynamic from solid
Protocol: as §2

[10] = physchem; details: water, thermodynamic from solid, Approximate solubility
Protocol: Form P (5 mg, purity 100%) was weighed to a 2 mL glass vial. 20 μL aliquots of each solvent were added to dissolve the drug substance at 25 C. […] Vortex and sonication were applied to assist dissolution. Max. volume of each solvent added is 1 mL. For obtained suspensions (Exp. ID 1, 10 and 11) after addition of 1 mL solvent at 25° C., they were placed at 50° C. Approximate solubility was determined by visual observation.

[11] = pH 1.2 HCl buffer (0.1N), 37° C.
[12] = pH 3 citrate buffer (50 mM), 37° C.
[13] = pH 5 acetate buffer (50 mM), 37° C.
[14] = pH 7 phosphate buffer (50 mM), 37° C.
[15] = 25° C./92.5% RH, open container, 1 week
[16] = 25° C./92.5% RH, open container, 2 weeks
[17] = 25° C./92.5% RH, open container, 4 weeks
[18] = 40° C./75% RH, open container, 1 week
[19] = 40° C./75% RH, open container, 2 weeks
[20] = 40° C./75% RH, open container, 4 weeks
[21] = 60° C., tight container, 1 week
[22] = 60° C., tight container, 2 weeks
[23] = 60° C., tight container, 4 weeks
[24] = photo (visible light, closed, 1.2 million lux-hrs at 25° C.), clear vial
[25] = photo (visible light, closed, 1.2 million lux-hrs at 25° C.), wrapped with aluminum foil

## Cc1nc(-c2c[nH]c3c(C#N)cccc23)cnc1OCC(C)(C)O [Form P, 3-(5-(2-hydroxy-2-methylpropoxy)-6-methylpyrazin-2-yl)-1H-indole-7-carbonitrile]
[1]; 1 min
  Comments (crystallinity): No obvious change in crystallinity
  XRPD: Form P
[1]; 3 min
  Comments (crystallinity): No obvious change in crystallinity
  XRPD: Form P
[1]; 5 min
  Comments (crystallinity): No obvious change in crystallinity
  XRPD: Form P
[2]; granulation solvent Ethanol
  Comments (crystallinity): No obvious change in crystallinity
  XRPD: Form P
[2]; granulation solvent Water
  Comments (crystallinity): No obvious change in crystallinity
  XRPD: Form P
[3]; 2-MeTHF, 25° C., 2 weeks
  XRPD after equilibration: Form P
[3]; 2-MeTHF, 50° C., 1 week
  XRPD after equilibration: Form P
[3]; 2-MeTHF/heptane (v:v = 1:1), 25° C., 2 weeks
  XRPD after equilibration: Form P
[3]; 2-MeTHF/heptane (v:v = 1:1), 50° C., 1 week
  XRPD after equilibration: Form P
[3]; 2-MeTHF/heptane (v:v = 3:1), 25° C., 2 weeks
  XRPD after equilibration: Form P
[3]; 2-MeTHF/heptane (v:v = 3:1), 50° C., 1 week
  XRPD after equilibration: Form P
[3]; 2-Propanol, 25° C., 2 weeks
  XRPD after equilibration: Form P
[3]; 2-Propanol, 50° C., 1 week
  XRPD after equilibration: Form P
[3]; Acetone, 25° C., 2 weeks
  XRPD after equilibration: Form P
[3]; Acetone, 50° C., 1 week
  XRPD after equilibration: Form P
[3]; Acetone/water (v:v = 30:70) a.w. = 0.92, 50° C., 1 week
  XRPD after equilibration: Form P
[3]; Acetonitrile, 25° C., 2 weeks
  XRPD after equilibration: Form P
[3]; Acetonitrile, 50° C., 1 week
  XRPD after equilibration: Form P
[3]; DMSO, 25° C., 2 weeks
  XRPD after equilibration: Form U
[3]; DMSO, 50° C., 1 week, (500 mg/mL)
  Comments (appearance): Clear solution
[3]; DMSO/water (v:v = 40:60) a.w. = 0.77, 50° C., 1 week
  XRPD after equilibration: Form P
[3]; Ethanol, 25° C., 2 weeks
  XRPD after equilibration: Form P
[3]; Ethanol, 50° C., 1 week
  XRPD after equilibration: Form P
[3]; Ethanol/water (v:v = 40:60) a.w. = 0.91, 25° C., 2 weeks
  XRPD after equilibration: Form P
[3]; Ethanol/water (v:v = 40:60) a.w. = 0.91, 50° C., 1 week
  XRPD after equilibration: Form P
[3]; Ethyl acetate, 25° C., 2 weeks
  XRPD after equilibration: Form P
[3]; Ethyl acetate, 50° C., 1 week
  XRPD after equilibration: Form P
[3]; Heptane, 25° C., 2 weeks
  XRPD after equilibration: Form P
[3]; Heptane, 50° C., 1 week
  XRPD after equilibration: Form P
[3]; Isopropyl acetate, 25° C., 2 weeks
  XRPD after equilibration: Form P
[3]; Isopropyl acetate, 50° C., 1 week
  XRPD after equilibration: Form P
[3]; MEK, 25° C., 2 weeks
  XRPD after equilibration: Form P
[3]; MEK, 50° C., 1 week
  XRPD after equilibration: Form P
[3]; MTBE, 25° C., 2 weeks
  XRPD after equilibration: Form P
[3]; MTBE, 50° C., 1 week
  XRPD after equilibration: Form P
[3]; Methanol, 25° C., 2 weeks
  XRPD after equilibration: Form B + Form W
[3]; Methanol, 50° C., 1 week
  XRPD after equilibration: Form P
[3]; NMP, 25° C., 2 weeks
  XRPD after equilibration: Form Q
[3]; NMP, 50° C., 1 week, (500 mg/mL)
  Comments (appearance): Clear solution
[3]; THF, 25° C., 2 weeks
  XRPD after equilibration: Form P
[3]; THF, 50° C., 1 week, (250 mg/mL)
  Comments (appearance): Clear solution
[3]; THF/water (v:v = 80:20) a.w. = 0.91, 50° C., 1 week, (500 mg/mL)
  Comments (appearance): Clear solution
[3]; Toluene, 25° C., 2 weeks
  XRPD after equilibration: Form P
[3]; Toluene, 50° C., 1 week
  XRPD after equilibration: Form P
[3]; Water, 25° C., 2 weeks
  XRPD after equilibration: Form P
[3]; Water, 50° C., 1 week
  XRPD after equilibration: Form P
[4]
  Form after heating: converted to Form R
[5]; FaSSGF, pH 1.6, 37° C.
  XRPD: Form P
  pH: 1.5
[5]; FaSSIF-v1, pH 6.5, 37° C.
  XRPD: Form P
  pH: 6.4
[5]; FeSSIF-v1, pH 5.0, 37° C.
  XRPD: Form P
  pH: 4.9
[5]; Water, 37° C.
  XRPD: Form P
  pH: 7.7
[5]; [11]
  XRPD: Form P
  pH: 1.1
[5]; [12]
  XRPD: Form P
  pH: 3.0
[5]; [13]
  XRPD: Form P + one additional peak (It
  pH: 4.9
[5]; [14]
  XRPD: Form P
  pH: 6.9
[6]; [15]
  Bulk (XRPD): No form change
  Color: No color change
  Purity, Bulk (HPLC): 100%
[6]; [16]
  Bulk (XRPD): No form change
  Color: No color change
  Purity, Bulk (HPLC): 100%
[6]; [17]
  Bulk (XRPD): No form change
  Color: No color change
  Purity, Bulk (HPLC): 100%
[6]; [18]
  Bulk (XRPD): No form change
  Color: No color change
  Purity, Bulk (HPLC): 100%
[6]; [19]
  Bulk (XRPD): No form change
  Color: No color change
  Purity, Bulk (HPLC): 100%
[6]; [20]
  Bulk (XRPD): No form change
  Color: No color change
  Purity, Bulk (HPLC): 100%
[6]; [21]
  Bulk (XRPD): No form change
  Color: No color change
  Purity, Bulk (HPLC): 99.9%
[6]; [22]
  Bulk (XRPD): No form change
  Color: No color change
  Purity, Bulk (HPLC): 100%
[6]; [23]
  Bulk (XRPD): No form change
  Color: No color change
  Purity, Bulk (HPLC): 100%
[6]; [24]
  Bulk, clear vial (XRPD): No form change
  Color: medium discoloration
  Purity, Bulk, clear vial (HPLC): ~60%
[6]; [25]
  Color: No color change
  Purity, Bulk, wrapped with aluminum foil (HPLC): 100%
[7]; 0 h
  Purity after holding: Purity: 100%
[7]; 40° C., 22 h
  Purity after holding: 100%
[7]; 40° C., 4 d
  Purity after holding: 100%
[7]; 50° C., 22 h
  Purity after holding: 100%
[7]; 50° C., 4 d
  Purity after holding: 100%
[7]; 60° C., 22 h
  Purity after holding: 100%
[7]; 60° C., 4 d
  Purity after holding: 100%
[8]; 0 h
  Purity after holding: Purity: 100%
[8]; 40° C., 22 h
  Purity after holding: 100%
[8]; 40° C., 4 d
  Purity after holding: 100%
[8]; 50° C., 22 h
  Purity after holding: 100%
[8]; 50° C., 4 d
  Purity after holding: 100%
[8]; 60° C., 22 h
  Purity after holding: 100%
[8]; 60° C., 4 d
  Purity after holding: 100%
[9]; pH 1.2, simulated gastric fluid
  solubility at 24 h: 7.2 µg/mL (≈ 22.3 µM)
[9]; pH 1.6, fassgf or other biorelevant
  solubility at 24 h: 5.1 µg/mL (≈ 15.8 µM)
[9]; pH 3, aqueous buffer
  solubility at 24 h: 2.9 µg/mL (≈ 9 µM)
[9]; pH 5, aqueous buffer
  solubility at 24 h: 2.3 µg/mL (≈ 7.13 µM)
[9]; pH 5, fessif
  solubility at 24 h: 111 µg/mL (≈ 343 µM)
[9]; pH 6.5, fassif
  solubility at 24 h: 20.9 µg/mL (≈ 64.8 µM)
[9]; pH 7, aqueous buffer
  solubility at 24 h: 2.4 µg/mL (≈ 7.44 µM)
[9]; water
  solubility at 24 h: 2.7 µg/mL (≈ 8.38 µM)
[10]; 25 °C
  solubility: < 5000 µg/mL
[10]; 50 °C
  solubility: < 5000 µg/mL
